Measured values reported in patent publication US20230293526A1, “METHOD FOR TREATING CANCER WITH A REVERSE TRANSCRIPTASE INHIBITOR” (PrimeFour Therapeutics, Inc., priority 2020, published 2023).

System: T24
Assay: Cell proliferation Ex.3
Type: cell-based
Details: Homo sapiens, T-24

IC50 (T24, 72 h): > 10 µM
IC50 (T24, 120 h): > 10 µM
IC50 (T24, 168 h): > 10 µM
SMILES: C#C[C@]1(CO)O[C@@H](n2cc(F)c(N)nc2=O)C[C@@H]1O [compound 9]
